This note sets out measurements from patent US9999636B2, “Insulin-mimetics as therapeutic adjuncts for bone regeneration” (Rutgers, The State University of New Jersey, priority 2010, dated 2018).

Marks after values point to notes of the source that are not given here.

The subject of series [1] is posterolateral intertransverse lumbar fusion L4-L5. The series is described as follows: Radiographic grading of posterolateral lumbar spinal fusion. Format: in vivo, Sprague-Dawley rat. Conditions: n = 10, eight weeks.
For series [2], the system named is closed mid-diaphyseal femur fracture. The experiment in a line: Torsional mechanical testing of fractured femora, local ZnCl2 with or without CaSO4 carrier. Format: in vivo, BB Wistar rat. Also on record: Percent Effective Shear Stress: scale not given: direction of the effect not stated beside the values. Conditions: for mode of torsional failure: femurs harvested 4 weeks post-surgery (FIG. 2). The text has this:
In addition to the biomechanical parameters determined through torsional testing, the mode of failure can also provide substantial information. The mode of torsional failure as determined by gross inspection provided an indication as to the extent of healing. A spiral failure in the mid-diaphyseal region indicated a complete union while a transverse failure through the fracture site indicated a nonunion. A combination spiral/transverse failure indicated a partial union (FIG. 2).
To prepare the ZnCl2/CaSO4 mixture, CaSO4 (2 g) were placed in glass vials. The vials were placed in an autoclave and sterilized […] in a dry cycle. CaSO4 powder (0.8 g) was mixed with 400 μl of saline or 400 μl of ZnCl2 solution (1.0 mg/kg) for one minute at room temperature. The mixture was packed into the barrel of a 1 cc sterile syringe and pushed down into the open orifice of the syringe barrel by insertion of the syringe plunger. After attaching an 18-gauge sterile needle to the syringe barrel, 0.1 ml volume of the mixture was directly injected into the rat femoral canal (non-diabetic BB Wistar rat) prior to Kirschner wire insertion and fracture.

The conditions of series [3]: 10.0 mg/kg local, no carrier.
Text: Diabetic Resistance (DR) BB Wistar rats used in the study were obtained from a breeding colony at UMDNJ-New Jersey Medical School (NJMS). The rats were housed under controlled environmental conditions and fed ad libitum. All research protocols were approved by the Institutional Animal Care and Use Committee at University of Medicine and Dentistry of New Jersey-New Jersey Medical School.
Doses of ZnCl2 were not based on each animal's body weight, but on a lower theoretically tolerable dose for a 290-gram BB Wistar rat, which would not elicit heavy metal poisoning or behavioral changes. This weight is over 50 grams lower than the average weight of non-diabetic BB Wistar rats at an age of approximately 90 days (the age of investigation in this study). A 0.1 ml volume of the ZnCl2 solution was administered locally via a single injection into the marrow space for each dose examined.
The subject of series [4] is closed mid-diaphyseal femur fracture. Conditions: four weeks post-fracture. From the text: X-rays are taken at two-week intervals to the day of euthanasia. After euthanasia x-rays are taken as well. To take x-rays, animals will be given a half dose of anesthesia. All groups will be monitored closely for four days after surgery for infection, and the ability to ambulate freely.

The mark [5] stands for this setting: high dose 1.0 mg/kg Calcium Sulfate pellet, 1 mg/kg.
[6] abbreviates: low dose 0.5 mg/kg Calcium Sulfate pellet, listed as zinc, 0.5 mg/kg.

In the case of `[Zn]` [Zn], the “Radiographs: number graded A = solid fusion mass bilaterally” value in series [1] (setting [5]) is 7; in series [1] (setting [6]), 7/10. The “Radiographs: number graded D = Graft resorption” value in series [1] (setting [5]) was 0; in series [1] (setting [6]), 0/10.

With `[Cl-].[Cl-].[Zn+2]` [ZnCl2, Zinc chloride], the “mode of torsional failure” value in series [2] (1.0 mg/kg) and in series [2] (3.0 mg/kg) was “spiral fracture indicative of healing” in each case. In series [2] (10.0 mg/kg, no carrier, 4 weeks post-fracture, normalized to contralateral (intact) femur), the “Percent Effective Shear Stress” value turned out to be 27 ± 11%. In series [2] (applied directly to fracture site, instead of average eight to ten weeks in standard rat femur fracture model), the “time in which fracture healing resolved” value is “four to five weeks”. Further, the “Blood Glucose 12 Hours Post-Surgery” value in series [3] is listed as 87.7 ± 8.5 ^a mg/dl.

As to manganese chloride [MnCl2], the “mineralized tissue on radiographs” value in series [4] (0.25 mg/kg, vs saline controls) is given as “increased mineralized tissue”. Moreover, the union on radiographs result in series [4] (saline control had no evidence of union) is “demonstrated union at the subperiosteal bony area and at the callus”.
